From PubChem BioAssay AID747 (Structural Genomics Consortium, 2007)

What follows are compounds tested against Sulfotransferase 1E1 (Homo sapiens) (UniProt P49888) (assay: SULT1E1 thermal stabilisation by ligands, biophysical, StarGazer light scattering, human (AID 747)). Settings: purified SULT1E1, StarGazer light scattering thermal shift; at 1 mM; stronger effect = higher value.
Sulfotransferase 1E1 (Homo sapiens), sequence (P49888 whole entry, looked up): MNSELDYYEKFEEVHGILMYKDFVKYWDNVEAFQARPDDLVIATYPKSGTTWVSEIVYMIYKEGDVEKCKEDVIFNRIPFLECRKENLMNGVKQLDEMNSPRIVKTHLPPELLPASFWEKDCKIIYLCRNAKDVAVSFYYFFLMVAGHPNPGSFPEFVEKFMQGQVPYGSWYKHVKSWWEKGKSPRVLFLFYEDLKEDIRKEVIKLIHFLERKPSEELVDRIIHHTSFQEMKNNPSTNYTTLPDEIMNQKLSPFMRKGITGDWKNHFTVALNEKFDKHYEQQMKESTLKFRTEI
Compound `Cc1ncc(COP(=O)(O)O)c(C=O)c1O` has a Tagg shift of 3.95 °C. `NC[C@H](O)c1ccc(O)c(O)c1` gave a Tagg shift of 0 °C. `COC(=O)CCC(C)C1CCC2C3CCC4CC(O)CCC4(C)C3CCC12C` (stereo unspecified) showed a Tagg shift of 1.2 °C. `NC(Cc1cc(I)c(Oc2ccc(O)c(I)c2)c(I)c1)C(=O)O` (stereo unspecified) showed a Tagg shift of 2.6 °C. Work on `CCC(C)c1ccccc1O` (stereo unspecified) yielded a Tagg shift of 0 °C. In the case of `Cc1cccc(Nc2ccccc2C(=O)O)c1C`, the Tagg shift is reported as 2.35 °C. With `C[C@]12CC[C@@H]3c4cc(O)c(O)cc4CC[C@H]3[C@@H]1CC[C@@H]2O` the Tagg shift was 1.55 °C. For `C[C@]12CC[C@H](OS(=O)(=O)O)CC1=CC[C@@H]1[C@@H]2CC[C@]2(C)C(=O)CC[C@@H]12`, the Tagg shift was 1.1 °C. `O=c1c(O)c(-c2ccc(O)c(O)c2)oc2cc(O)cc(O)c12` was tested, and the Tagg shift was 1.95 °C. `O=[N+]([O-])c1cc(Cl)c(O)c(Cl)c1` gave a Tagg shift of 1.4 °C. Work on `Oc1c(Cl)c(Cl)c(Cl)c(Cl)c1Cl` yielded a Tagg shift of 0 °C. Compound `O=C(O)c1ccccc1O` has a Tagg shift of 0 °C. `CCc1ccccc1O` showed a Tagg shift of 0 °C. Work on `CC(C)NCC(O)c1ccc(O)c(O)c1` (stereo unspecified) yielded a Tagg shift of 0 °C. `COc1cc(C=O)ccc1O` showed a Tagg shift of 0 °C. For `CN1CCc2cccc3c2C1Cc1ccc(O)c(O)c1-3` (stereo unspecified), the Tagg shift was 0 °C. With `Oc1ccc(/C=C/c2cc(O)cc(O)c2)cc1` the Tagg shift was 2.25 °C. `CNCC(O)c1ccc(O)c(O)c1` (stereo unspecified) gave a Tagg shift of 0 °C. `NCCc1ccc(O)c(O)c1` was tested, and the Tagg shift was 0 °C. For `Cc1ccc(O)cc1`, the Tagg shift was 0 °C. `Oc1ccc2ccccc2c1` showed a Tagg shift of 0 °C. `C[C@H]1CCC[C@H](O)CCC/C=C/c2cc(O)cc(O)c2C(=O)O1` showed a Tagg shift of 1.3 °C. Work on `C[C@]12CC[C@@H]3c4ccc(O)cc4CC[C@H]3[C@@H]1CCC2=O` yielded a Tagg shift of 1.1 °C. In the case of `Oc1cccc2ccccc12`, the Tagg shift is reported as 0 °C. Compound `Nc1ccc(O)cc1` has a Tagg shift of 0 °C. Work on `CCCc1ccccc1O` yielded a Tagg shift of 0 °C.
